Assay results: patent US8003628B2, “Methods of inhibiting osteoclast activity” (The Trustees of The University of Pennsylvania, priority 1999, dated 2011)

Key:
osteoclast formation = target: osteoclast formation
Procedure: Cytochemical staining for TRAP is widely used for identifying osteoclasts in vivo and in vitro. Naphthol AS-MX phosphate 5 mg. Sigma, St. Louis, Mo.) is resolved in 0.5 ml of N,N-dimethylformamide (Wako). Thirty milligrams of fast red violet LB salt (Sigma) and 50 ml of 0.1 M sodium acetate buffer (pH 5.0) containing 50 mM sodium tartratet are added to the mixture (the TRAP-staining solution). Cells are fixed with 3.7% (v/v) formaldehyde in Ca^2−- and Mg^2+-free phosphate-buffered saline [PBS(−)] for 10 min. fixed again with ethanol-acetone (50:50, v:v) for 1 min. and incubated with the TRAP-staining solution for 10 min. at room temperature. TRAP-positive osteoclasts appear as red cells. The incubation period longer than 10 min. should be avoided since cells other than osteoclasts become weakly positive with time. After staining, cells are washed with distilled water, and TRAP-positive multinucleated cells having three or more nuclei are counted as osteoclasts under a microscope.

[1] = system: TRANCE-induced marrow cultures; test: TRANCE-induced marrow cultures; type: cell-based; conditions: reciprocal dose-dependence of WP9QY and TRANCE
Procedure: This peptide (5-500 μM) was tested for its effect on osteoclast formation using the co-culture system induced by 1,250H2D3 and PGE2. […] There was a reciprocal dose-dependence of WP9QY and TRANCE. Thus, WP9QY is capable of interfering not only with TNF/TNF receptor (1) interaction but also with RANK Ligand/RANK interaction, thereby decreasing the osteoclastogenic potential of this cytokine.

L929 lymphocytes = conditions: Takasaki et al. 1997; cited from earlier work
[2] = target: TNF-related activation-induced cytokine (TRANCE); test: cell-based or functional assay

| Compound | IC50 osteoclastogenesis relative to IC50 TNF/TNF receptor (1) interaction (osteoclast formation; 250 μM vs 5 μM) [fold] | effect on osteoclastogenesis (osteoclast formation; co-culture system, peptide 5-500 μM) | IC50 (osteoclast formation; read-out: IC50, inhibition of osteoclastogenesis, co-culture system induced by 1,250H2D3 and PGE2, peptide 5-500 μM) [µM] | effect on TRANCE-induced marrow cultures [1] | antagonism of effects of TNF-binding to TNF-α receptor (1) (L929 lymphocytes) | osteoclast formation in the co-culture system induced by 1,25(OH)2D3 and PGE2 (IC50) [2] [µM] |
| --- | --- | --- | --- | --- | --- | --- |
| CC(C)C[C@@H]1NC(=O)[C@H](Cc2ccc(O)cc2)NC(=O)[C@H](CCC(N)=O)NC(=O)[C@H](CO)NC(=O)[C@H](Cc2c[nH]c3ccccc23)NC(=O)[C@@H](NC(=O)[C@@H](N)Cc2ccc(O)cc2)CSSC[C@@H](C(=O)N[C@@H](Cc2ccc(O)cc2)C(=O)O)NC1=O [WP9QY] | 50 | dose- and time-dependently inhibited | 250 | inhibits TRANCE-induced marrow cultures | efficiently antagonized |  |
| WP9QY (peptide) |  |  |  |  |  | 250 |
